{"source": "patent US7087588B2", "about": "“Nitric oxide donors capable of reducing toxicity from drugs” (Nicox S.A., priority 1996, dated 2006)", "key": {"[1]": {"experiment": "Renal functionality and gastrointestinal tolerability in hypertensive rats after diclofenac, with or without DON-NO", "assay_type": "in vivo, Sprague-Dawley male rats", "conditions": "spontaneously hypertensive rats, diclofenac 12 mg/kg i.p. daily, 5 days; nitroglycerin 3 mg/kg s.c.; vehicle = 100"}, "[2]": {"system": "guinea pigs", "experiment": "Capsaicin induced bronchoconstriction in enalapril-treated guinea pigs", "assay_type": "in vivo, guinea pig", "conditions": "enalapril 10 mg/kg and/or NO-naproxen 10 mg/kg intraduodenally, capsaicin 1 μg/kg i.v. 45 minutes later, vehicle = 100", "procedure": "Capsaicin-induced bronchoconstriction in guinea pigs is an animal model related to the ability of angiotensin-converting-enzyme inhibitors to provoke cough in patients (Subissi et al, J. Cardiovasc. Pharmacol. 20/1, 139–146, 1992).\nExperimental conditions were as previously described by Del Soldato et al (J. Pharmacological Methods 5, 279, 1981). Female guinea pigs weighing 300–400 g were anesthetized through intraperitoneal injection of sodiun 5,5 diethylbarbiturate (200 mg/kg) and kept under artificial respiration at constant positive pressure. Jugular right vein was incannuled for the administration of the compounds. Animals received intraduodenally enalapril (10 mg/kg), vehicle (carboxymethyl cellulose 2% by weight) and/or NO-naproxen (10 mg/kg). Forty-five minutes later, it was injected intravenously 0.1 ml capsaicin (1 μg/kg). Before and after capsaicin injection, tidal air changes were measured by means of modified Konzett apparatus connected to a polygraph amplifier.\nResults were calculated as ratio of the responses obtained before and after the administration of each treatment, expressed as % of the vehicle (control) response and shown in Table 7."}, "[3]": {"system": "Cells of the human umbilical vein", "experiment": "Nitric oxide generation by chemiluminescence, endothelial cells (method a)", "assay_type": "cell-based", "conditions": "incubation of 100 μmoles of NO donor, 5 minutes", "procedure": "In particular the test relates to the generation of nitric oxide from the NO donors of the present invention, among which, for instance, nitroglycerine, nicorandil, nitro-prussiate, etc., when they are put in the presence of endothelial cells (method a), or platelets (method b). Cells of the human umbilical vein, spread on the plate, with density of 10^3 cells/plate were incubated with scalar concentrations of NO donor (1–100 μg/ml) for 5 minutes. The incubation medium (physiologic solvent, for instance Tyrode) was then analyzed to determine the capacity to generate NO, by means of: • 1) the determination of nitric oxide by chemiluminescence; • 2) the cGMP determination (cyclic GMP No. 2715 of the above mentioned Merck). […] The nitrites/nitrates present in the medium in these conditions are converted into NO which is then determined after its reaction with ozone, with consequent generation of light. As it usually occurs in the devices measuring chemiluminescence, the produced luminescence is directly proportional to the NO levels generated and can be measured by the suitable photomultiplier unit of a chemiluminescence analyser. The photomultiplier converts the incident light into electric voltage, which is then quantitatively recorded. […]"}, "[4]": {"system": "Washed human platelets", "experiment": "Nitric oxide generation by chemiluminescence, platelets (method b)", "assay_type": "cell-based", "conditions": "incubation of 100 μmoles of NO donor, 5 minutes", "procedure": "Washed human platelets, prepared analogously with what described by Radomski et al, (Br. J. Pharmacol. 92, 639–1987), were utilized. Aliquots of 0.4 ml were incubated with scalar concentrations of NO donors (1–100 μg/ml) for 5 minutes. The incubation medium (f.i. Tyrode) was then analysed to determine the capacity of generating NO, by determination of nitric oxide by chemiluminiscence and cGMP, with the modalities described in the previous paragraph, for the analyses carried out on the endothelial cells. As to the determination by chemiluminescence, also in this case, on the basis of a calibration curve, prepared with scalar concentrations of nitrite, it was possible to determine quantitatively the concentration of generated NO. For instance, after incubation of 100 μmoles of nicorandil, an amount equal to 35 μmoles of NO was generated."}, "[5]": {"system": "rats", "experiment": "Tolerance to nitroglycerin after repeated subcutaneous administration in rats", "assay_type": "in vivo, rat", "conditions": "nitroglycerin given with enalapril, repeated subcutaneous administration 1 mg/kg per day"}}, "note": "Marks after values point to notes of the source that are not given here.", "data": [{"smiles": "O=C(O)Cc1ccccc1Nc1c(Cl)cccc1Cl", "note": "[DICLOFENAC, diclofenac]", "values": [{"measurement": "BLOOD CREATININE, percent variation with respect to the control values", "setting": "[1]", "result": "287* PERCENT"}]}, {"smiles": "CCOC(=O)[C@H](CCc1ccccc1)N[C@@H](C)C(=O)N1CCC[C@H]1C(=O)O", "note": "[enalapril]", "values": [{"measurement": "BRONCHOCONSTRICTION (%), % of the vehicle (control) response", "setting": "[2]", "result": 290, "unit": "%"}]}, {"smiles": "O=C(NCCO[N+](=O)[O-])c1cccnc1", "note": "[nicorandil, N-[2-(nitrooxy)ethyl]-3-pyridine-carboxamide]", "values": [{"measurement": "amount of NO generated", "setting": "[3]", "result": "about 10 μmoles"}, {"measurement": "amount of NO generated", "setting": "[4]", "result": 35, "unit": "µmol"}]}, {"smiles": "O=[N+]([O-])OCC(CO[N+](=O)[O-])O[N+](=O)[O-]", "note": "[nitroglycerin, 1,2,3 propanetriol trinitrate]", "values": [{"measurement": "tolerance after repeated administration", "setting": "[5]", "result": "did not cause any tolerance"}]}]}
